The numbers were not newly measured in patent US6365551B1, “Highly concentrated glyphosate herbicidal compositions” (Monsanto Technology LLC, priority 1990, dated 2002), which cites them from elsewhere.

For this data set the following is noted: glyphosate in acid form.

Regarding `O=C(O)CNCP(=O)(O)O` [glyphosate, N-phosphonomethylglycine], the water solubility entry was “about 1.2%”.
